Data: ChEMBL document CHEMBL1134861, “Improving metabolic stability of phosphodiesterase-4 inhibitors containing a substituted catechol: prevention of reactive intermediate formation and covalent binding” (Bioorg Med Chem Lett, 2002)

Species: Rattus norvegicus
Experiment: In vitro metabolism of radiolabeled compound at 10 uM was performed in rat microsomal protein containing a NADPH-regenerating system for 1 hr at 37 degree C
Type: functional

SMILES | Covalent binding | Covalent binding (tested as the 3H-labelled form)
Cc1cncc(C)c1CC(c1ccc(C(O)(C(F)(F)F)C(F)(F)F)cc1)c1ccc(OCF)c(OC(F)F)c1 (stereo not given) | < 0.05% | 
[O-][n+]1ccc(CC(c2ccc(C(O)(C(F)(F)F)C(F)(F)F)cc2)c2ccc(OC(F)F)c(OC(F)F)c2)cc1 (stereo not given) | < 0.05% | 

Second part, the compound after the results:

Covalent binding | Covalent binding (tested as the 3H-labelled form) | SMILES
2.9% |  | COc1ccc(C(Cc2c(C)cncc2C)c2ccc(C(O)(C(F)(F)F)C(F)(F)F)cc2)cc1OC1CCCC1 (stereo not given)
 | 3.1% | COc1ccc([C@H](Cc2ccncc2)c2ccc(C(O)(C(F)(F)F)C(F)(F)F)cc2)cc1OC1CCCC1
0.45% |  | Cc1cncc(C)c1CC(c1ccc(C(O)(C(F)(F)F)C(F)(F)F)cc1)c1ccc(OCF)c(OC2CCC2)c1 (stereo not given)
